Read-outs that look alike come from different tables or passages of the source.

This is an account of results in patent US20260028365A1 (BIOGEN MA INC., priority 2022, published 2026).

In one assay the target is JH2 domain of human Tyk2 (Homo sapiens (Human), UniProt P29597). Nature of the assay: JH2 Biochemical Assay (TR-FRET probe displacement). In kind it is binding. On the technique in general: TR-FRET usually uses a lanthanide donor and a delayed reading to cut background.
The next assay addresses Tyk2 (Homo sapiens (Human), UniProt P29597). Nature of the assay: pSTAT4 Cell Assay (MSD, NK92 cells). Format: cell-based.
[1] abbreviates: TR-FRET probe displacement, JH2 domain.
Setting [2] is: JH2 domain of human Tyk2, TR-FRET probe displacement.
Setting [3] is: TR-FRET probe displacement, JH2 domain of human Tyk2.

Chain of JH2 domain of human Tyk2 (P29597 575-876): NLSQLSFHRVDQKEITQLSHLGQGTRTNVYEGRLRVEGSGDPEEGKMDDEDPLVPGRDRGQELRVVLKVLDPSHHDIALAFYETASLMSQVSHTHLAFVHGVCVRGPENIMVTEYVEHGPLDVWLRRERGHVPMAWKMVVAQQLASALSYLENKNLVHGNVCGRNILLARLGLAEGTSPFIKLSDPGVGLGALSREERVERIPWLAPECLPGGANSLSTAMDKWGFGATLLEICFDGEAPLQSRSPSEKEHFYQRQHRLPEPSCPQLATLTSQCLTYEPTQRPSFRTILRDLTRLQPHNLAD
Chain of Tyk2 (P29597 whole entry, the tested form may be a part): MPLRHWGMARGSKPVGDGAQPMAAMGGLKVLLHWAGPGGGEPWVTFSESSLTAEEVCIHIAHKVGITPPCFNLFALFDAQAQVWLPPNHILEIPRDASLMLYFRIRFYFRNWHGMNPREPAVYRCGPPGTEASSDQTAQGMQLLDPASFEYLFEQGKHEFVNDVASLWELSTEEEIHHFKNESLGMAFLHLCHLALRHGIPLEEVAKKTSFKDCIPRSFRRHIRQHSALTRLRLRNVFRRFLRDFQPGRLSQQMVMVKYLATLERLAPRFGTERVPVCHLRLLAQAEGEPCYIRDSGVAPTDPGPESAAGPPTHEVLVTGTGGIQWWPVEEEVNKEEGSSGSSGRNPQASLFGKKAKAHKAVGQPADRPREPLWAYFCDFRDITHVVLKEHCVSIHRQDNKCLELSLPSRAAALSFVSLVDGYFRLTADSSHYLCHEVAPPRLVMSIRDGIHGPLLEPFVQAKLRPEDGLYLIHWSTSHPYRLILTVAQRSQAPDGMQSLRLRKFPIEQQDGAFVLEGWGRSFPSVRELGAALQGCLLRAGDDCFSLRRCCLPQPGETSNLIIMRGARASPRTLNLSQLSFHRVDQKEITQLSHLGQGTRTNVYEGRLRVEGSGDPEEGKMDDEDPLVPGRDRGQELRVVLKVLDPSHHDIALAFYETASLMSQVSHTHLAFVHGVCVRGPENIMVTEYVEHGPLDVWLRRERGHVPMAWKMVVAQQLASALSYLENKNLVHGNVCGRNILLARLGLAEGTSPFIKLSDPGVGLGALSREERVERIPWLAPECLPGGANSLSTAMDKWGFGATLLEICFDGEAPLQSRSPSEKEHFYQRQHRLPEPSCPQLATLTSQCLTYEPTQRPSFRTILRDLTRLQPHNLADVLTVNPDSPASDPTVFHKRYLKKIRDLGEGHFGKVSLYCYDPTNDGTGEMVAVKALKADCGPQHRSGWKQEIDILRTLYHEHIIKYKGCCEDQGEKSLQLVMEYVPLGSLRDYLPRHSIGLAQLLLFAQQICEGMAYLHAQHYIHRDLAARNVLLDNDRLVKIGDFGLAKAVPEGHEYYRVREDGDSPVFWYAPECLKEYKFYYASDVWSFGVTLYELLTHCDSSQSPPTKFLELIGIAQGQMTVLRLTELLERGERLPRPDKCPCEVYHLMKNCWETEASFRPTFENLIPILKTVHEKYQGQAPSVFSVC

For orientation: IC50 means the concentration at which inhibition is half-maximal. A high value points to weaker potency in that assay. Turning to `CC(=O)Nc1cc(Nc2cc(C(C)C)nc(C(C)(F)F)n2)c(-c2ccc3c(n2)OCC(C)(C)O3)cn1` [Example 822, N-(4-((2-(1,1-difluoroethyl)-6-isopropylpyrimidin-4-yl)amino)-5-(2,2-dimethyl-2,3-dihydro-[1,4]dioxino[2,3-b]pyridin-6-yl)pyridin-2-yl)acetamide], the IC50 at JH2 domain of human Tyk2 (setting [1]) and on Tyk2 was at most 10 nM each time.

Turning to `CCn1ccc(-c2cnc(NC(C)=O)cc2Nc2ccnc(C(C)(F)F)n2)n1` [Example 706, N-(4-((2-(1,1-difluoroethyl)pyrimidin-4-yl)amino)-5-(1-ethyl-1H-pyrazol-3-yl)pyridin-2-yl)acetamide], the half-inhibitory concentration (IC50) at JH2 domain of human Tyk2 (setting [2]) and at Tyk2 (MSD) was at most 10 nM each time.

As for `CC(=O)Nc1cc(Nc2cc(C)nc(C(C)(F)F)n2)c(OCC2CCCN2C)cn1` (stereo not drawn) [Example 479, N-(4-((2-(1,1-difluoroethyl)-6-methylpyrimidin-4-yl)amino)-5-((1-methylpyrrolidin-2-yl)methoxy)pyridin-2-yl)acetamide], the concentration for half-maximal inhibition (IC50) was at most 10 nM at JH2 domain of human Tyk2 (setting [2]) and 100 to 1000 nM at Tyk2 (MSD).

Turning to `CC(=O)Nc1cc(Nc2cc(C)nc(C(C)(F)F)n2)c(OCCCC2CCCO2)cn1` (stereo not drawn) [Example 434, N-(4-((2-(1,1-difluoroethyl)-6-methylpyrimidin-4-yl)amino)-5-(3-(tetrahydrofuran-2-yl)propoxy)pyridin-2-yl)acetamide], the IC50 on JH2 domain of human Tyk2 (setting [2]) is at most 10 nM; at Tyk2 (MSD), 10 to 100 nM.

In the case of `COc1cnc(NC(C)=O)cc1Nc1cc(-c2ccc(F)c(C#N)c2)nc(C(C)(F)F)n1` [Example 394, N-(4-((6-(3-cyano-4-fluorophenyl)-2-(1,1-difluoroethyl)pyrimidin-4-yl)amino)-5-methoxypyridin-2-yl)acetamide], the figures for the 50% inhibitory concentration (IC50) on JH2 domain of human Tyk2 (setting [2]) and at Tyk2 (MSD) were at most 10 nM and 100 to 1000 nM, respectively.

For the compound `CC(=O)Nc1cc(Nc2cc(C)nc(C(C)(F)F)n2)c(OCC(F)C2CCC2)cn1` (stereo not drawn) [Example 420, N-(5-(2-cyclobutyl-2-fluoroethoxy)-4-((2-(1,1-difluoroethyl)-6-methylpyrimidin-4-yl)amino)pyridin-2-yl)acetamide], the IC50 on JH2 domain of human Tyk2 (setting [2]) was at most 10 nM; on Tyk2 (MSD), 10 to 100 nM.

As for `COc1cnc(NC(C)=O)cc1Nc1cc(O[C@H]2C[C@@H](F)C2)nc(C(C)(F)F)n1` [Example 461, N-(4-((2-(1,1-difluoroethyl)-6-((1s,3s)-3-fluorocyclobutoxy)pyrimidin-4-yl)amino)-5-methoxypyridin-2-yl)acetamide], the IC50 on JH2 domain of human Tyk2 (setting [2]) is at most 10 nM; against Tyk2 (MSD) it was 10 to 100 nM.

As for `COc1nc(-c2cnc(NC(C)=O)cc2Nc2cc(C)nc(C(C)(F)F)n2)cs1` [Example 617, N-(4-((2-(1,1-difluoroethyl)-6-methylpyrimidin-4-yl)amino)-5-(2-methoxythiazol-4-yl)pyridin-2-yl)acetamide], the IC50 at JH2 domain of human Tyk2 (setting [2]) and against Tyk2 (MSD) was at most 10 nM throughout.

Turning to `CC(=O)Nc1cc(Nc2cc(C)nc(C(C)(F)F)n2)c(OCC2CC2(F)F)cn1` (stereo not drawn) [Example 74, N-(5-((2,2-difluorocyclopropyl)methoxy)-4-((2-(1,1-difluoroethyl)-6-methylpyrimidin-4-yl)amino)pyridin-2-yl)acetamide], the IC50 at JH2 domain of human Tyk2 (setting [3]) was at most 10 nM; on Tyk2 (MSD), 10 to 100 nM.

Regarding `CC(=O)Nc1cc(Nc2ccnc(C(C)(F)F)n2)c(-c2ccc3c(n2)CCC3=O)cn1` [Example 718, N-(4-((2-(1,1-difluoroethyl)pyrimidin-4-yl)amino)-5-(5-oxO6,7-dihydrO5H-cyclopenta[b]pyridin-2-yl)pyridin-2-yl)acetamide], the IC50 on JH2 domain of human Tyk2 (setting [2]) is at most 10 nM; at Tyk2 (MSD) it was 10 to 100 nM.

Regarding `CC(=O)Nc1cc(Nc2cc(C)nc(C(C)(F)F)n2)c(OCC2CC3(CCC3)CO2)cn1` (stereo not drawn) [Example 433, N-(5-((6-oxaspiro[3.4]octan-7-yl)methoxy)-4-((2-(1,1-difluoroethyl)-6-methylpyrimidin-4-yl)amino)pyridin-2-yl)acetamide], the IC50 on JH2 domain of human Tyk2 (setting [2]) and against Tyk2 (MSD) was at most 10 nM throughout.

With `CC(=O)Nc1cc(Nc2cc(C)nc(C34COC(C3)C4)n2)c(-c2cc3n(n2)CC(F)(F)C3)cn1` [Example 564, N-(4-((2-(2-oxabicyclo[2.1.1]hexan-4-yl)-6-methylpyrimidin-4-yl)amino)-5-(5,5-difluorO5,6-dihydrO4H-pyrrolo[1,2-b]pyrazol-2-yl)pyridin-2-yl)acetamide], the IC50 at JH2 domain of human Tyk2 (setting [2]) and at Tyk2 (MSD) was at most 10 nM throughout.

For `CC(=O)Nc1cc(Nc2ccnc(C(C)(F)F)n2)c(-c2cnc(N3CCC4(COC4)C3)cn2)cn1` [Example 869, N-(5-(5-(2-oxa-6-azaspiro[3.4]octan-6-yl)pyrazin-2-yl)-4-((2-(1,1-difluoroethyl)pyrimidin-4-yl)amino)pyridin-2-yl)acetamide], the IC50 at JH2 domain of human Tyk2 (setting [1]) was in the range of 10 to 100 nM; against Tyk2 it was 100 to 1000 nM.

For the compound `COCc1cc(-c2cnc(NC(C)=O)cc2Nc2cc(C)nc(C(C)(F)F)n2)ncn1` [Example 665, N-(4-((2-(1,1-difluoroethyl)-6-methylpyrimidin-4-yl)amino)-5-(6-(methoxymethyl)pyrimidin-4-yl)pyridin-2-yl)acetamide], the IC50 on JH2 domain of human Tyk2 (setting [2]) was at most 10 nM; against Tyk2 (MSD), 10 to 100 nM.

For the compound `CCc1cc(Nc2cc(NC(C)=O)ncc2-c2ccc(=O)n(C)n2)nc(C(C)(F)F)n1` [Example 831, N-(4-((2-(1,1-difluoroethyl)-6-ethylpyrimidin-4-yl)amino)-5-(1-methyl-6-oxo-1,6-dihydropyridazin-3-yl)pyridin-2-yl)acetamide], the IC50 on JH2 domain of human Tyk2 (setting [1]) and on Tyk2 was at most 10 nM each time.

As for `CC(=O)Nc1cc(Nc2ccnc(C(C)(F)F)n2)c(-c2cc(N(C)C)ncn2)cn1` [Example 256, N-(4-((2-(1,1-difluoroethyl)pyrimidin-4-yl)amino)-5-(6-(dimethylamino)pyrimidin-4-yl)pyridin-2-yl)acetamide], the figures for the IC50 on JH2 domain of human Tyk2 (setting [3]) and against Tyk2 (MSD) were 10 to 100 nM and at least 1000 nM, respectively.

Regarding `CC(=O)Nc1cc(Nc2cc(C)nc(C(C)(F)F)n2)c(-c2cccc(C3CN(C)CCO3)n2)cn1` (stereo not drawn) [Example 640, N-(4′-((2-(1,1-difluoroethyl)-6-methylpyrimidin-4-yl)amino)-6-(4-methylmorpholin-2-yl)-[2,3′-bipyridin]-6′-yl)acetamide], the IC50 on JH2 domain of human Tyk2 (setting [2]) and against Tyk2 (MSD) was at most 10 nM in each case.

For the compound `[2H]C([2H])([2H])Oc1cnc(NC(C)=O)cc1Nc1cc(OC2CC2)nc(C(C)(F)F)n1` [Example 415, N-(4-((6-cyclopropoxy-2-(1,1-difluoroethyl)pyrimidin-4-yl)amino)-5-(methoxy-d3)pyridin-2-yl)acetamide], the IC50 on JH2 domain of human Tyk2 (setting [2]) and against Tyk2 (MSD) was at most 10 nM in each case.

For the compound `CC(=O)Nc1cc(Nc2ccnc(C(C)(F)F)n2)c(-c2ccc(OC(F)F)nn2)cn1` [Example 858, N-(4-((2-(1,1-difluoroethyl)pyrimidin-4-yl)amino)-5-(6-(difluoromethoxy)pyridazin-3-yl)pyridin-2-yl)acetamide], the IC50 was at most 10 nM on JH2 domain of human Tyk2 (setting [1]) and 10 to 100 nM against Tyk2.

Take `CC(=O)Nc1cc(Nc2cc(C)nc(C(C)(F)F)n2)c(OC[C@H]2C[C@H](F)C2)cn1` [Example 332, N-(4-((2-(1,1-difluoroethyl)-6-methylpyrimidin-4-yl)amino)-5-(((1r,3r)-3-fluorocyclobutyl)methoxy)pyridin-2-yl)acetamide]: the IC50 on JH2 domain of human Tyk2 (setting [3]) is at most 10 nM; at Tyk2 (MSD), 10 to 100 nM.

As to `CC(=O)Nc1cc(Nc2cc(C)nc(C(C)(F)F)n2)c(-c2csc(C)n2)cn1` [Example 606, N-(4-((2-(1,1-difluoroethyl)-6-methylpyrimidin-4-yl)amino)-5-(2-methylthiazol-4-yl)pyridin-2-yl)acetamide], the IC50 at JH2 domain of human Tyk2 (setting [2]) and on Tyk2 (MSD) was at most 10 nM throughout.

As to `CCc1cc(Nc2cc(NC(C)=O)ncc2-c2cnc(CN3C[C@H]4C[C@@H](C3)O4)cn2)nc(C(C)(F)F)n1` [Example 900, N-(5-(5-(((1R,5S)-6-oxa-3-azabicyclo[3.1.1]heptan-3-yl)methyl)pyrazin-2-yl)-4-((2-(1,1-difluoroethyl)-6-ethylpyrimidin-4-yl)amino)pyridin-2-yl)acetamide], the IC50 on JH2 domain of human Tyk2 (setting [1]) and against Tyk2 was at most 10 nM each time.

Regarding `CC(=O)Nc1cc(Nc2ccnc(C(C)(F)F)n2)c(-c2nnc(N3CCN(C)CC3)s2)cn1` [Example 774, N-(4-((2-(1,1-difluoroethyl)pyrimidin-4-yl)amino)-5-(5-(4-methylpiperazin-1-yl)-1,3,4-thiadiazol-2-yl)pyridin-2-yl)acetamide], the IC50 at JH2 domain of human Tyk2 (setting [1]) and against Tyk2 was at most 10 nM each time.

For `CC(=O)Nc1cc(Nc2cc(C)nc(C(C)(F)F)n2)c(-c2cnc(CN3CCOCC3)cn2)cn1` [Example 793, N-(4-((2-(1,1-difluoroethyl)-6-methylpyrimidin-4-yl)amino)-5-(5-(morpholinomethyl)pyrazin-2-yl)pyridin-2-yl)acetamide], the IC50 on JH2 domain of human Tyk2 (setting [1]) and against Tyk2 was at most 10 nM each time.

In the case of `CCc1cc(Nc2cc(NC(C)=O)ncc2OCCF)nc(C(C)(F)F)n1` [Example 407, N-(4-((2-(1,1-difluoroethyl)-6-ethylpyrimidin-4-yl)amino)-5-(2-fluoroethoxy)pyridin-2-yl)acetamide], the IC50 on JH2 domain of human Tyk2 (setting [2]) and against Tyk2 (MSD) was at most 10 nM throughout.

As for `COc1cnc(NC(C)=O)cc1Nc1cc(OC2CC(C#N)C2)nc(C(C)(F)F)n1` (stereo not drawn) [Example 456, N-(4-((6-(3-cyanocyclobutoxy)-2-(1,1-difluoroethyl)pyrimidin-4-yl)amino)-5-methoxypyridin-2-yl)acetamide], the 50% inhibitory concentration (IC50) at JH2 domain of human Tyk2 (setting [2]) is at most 10 nM; on Tyk2 (MSD) it was 10 to 100 nM.

In the case of `CCc1cc(Nc2cc(NC(C)=O)ncc2-c2cnc(CN(C)C)cn2)nc(C(C)(F)F)n1` [Example 895, N-(4-((2-(1,1-difluoroethyl)-6-ethylpyrimidin-4-yl)amino)-5-(5-((dimethylamino)methyl)pyrazin-2-yl)pyridin-2-yl)acetamide], the IC50 on JH2 domain of human Tyk2 (setting [1]) and against Tyk2 was at most 10 nM throughout.
